Converted amounts (≈) assume the structure as drawn. “Also recorded” adds a separate entry of the source.
Experiments:
[1] = in animals; cited from earlier work
[2] = system: some species of mycobacteria; conditions: cited from earlier work
M. smegmatis = assay: microbe, parasite or virus in culture; type: cell-based, Mycobacterium smegmatis; conditions: for growth of M. smegmatis culture: addition to culture
[3] = target: T1, M. tuberculosis VKOR (MtbVKOR) (Mycobacterium tuberculosis, UniProt I6X5W1); type: cell-based
T1 sequence (I6X5W1 1-210): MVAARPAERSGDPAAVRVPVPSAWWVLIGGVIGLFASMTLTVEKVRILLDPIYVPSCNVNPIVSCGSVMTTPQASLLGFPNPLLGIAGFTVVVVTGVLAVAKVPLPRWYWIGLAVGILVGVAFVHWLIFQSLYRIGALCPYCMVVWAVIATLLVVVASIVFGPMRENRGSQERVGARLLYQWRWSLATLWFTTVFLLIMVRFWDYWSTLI

[4] = target: T1, M. tuberculosis VKOR (MtbVKOR); type: cell-based; remark: listed apart in the source

Row | Structure (SMILES) | anti-coagulant properties [1] | growth of mycobacteria [2] | growth of M. smegmatis culture (M. smegmatis) | disulfide bond formation / VKOR activity [3] | levels necessary to inhibit VKOR activity in E. coli [3] | levels necessary to inhibit growth in Msmeg (M. smegmatis) | MIC (M. smegmatis; Mycolicibacterium smegmatis, M. smegmatis grown in Middlebrook 7H9 medium (defined medium), alamar blue assay, read-out: minimal inhibitory concentration) | activity of β-galactosidase (increase indicates inhibition of disulfide bond formation) [4]
1 | CC(C)=CCC/C(C)=C/CC/C(C)=C/Cc1c(O)c2ccccc2oc1=O [ferulenol] | has anti-coagulant properties | inhibit the growth |  |  |  |  |  | 
2 | CC(=O)CC(c1ccccc1)c1c(O)c2ccccc2oc1=O (stereo not drawn) [sodium warfarin] |  |  | inhibits growth |  |  |  |  | 
3 | CC(=O)CC(c1ccccc1)c1c(O)c2ccccc2oc1=O (stereo not drawn) [warfarin] |  |  | caused inhibition of growth | inhibit the tuberculosis VKOR activity; also recorded: inhibit disulfide bond formation | high (millimolar concs.) | high (millimolar concs.) | 4.5 mM (≈ 1390 µg/mL) | significantly increased

Source: patent US20110243958A1, “ANTIMICROBIAL AGENTS THAT TARGET BACTERIAL VKOR” (priority 2008, published 2011)
